{
  "source": "patent US8404640B2",
  "about": "(priority 2006, dated 2013)",
  "key": {"[1]": {"system": "CXCL12 protein expression", "experiment": "Immunofluorescence microscopy of CXCL12 protein in 5-aza-treated HCT116 cells", "assay_type": "cell-based, human", "conditions": "2.5 μM 5-aza, 3 days", "description": "Immunofluorescence microscopy. HCT116 epithelial cells were plated to glass chamber slides and grown for 3-days in untreated or 5-aza containing media. Cells were stained with mouse mAb specific for CXCL12 (clone #79018.111, R&D Systems) or a nonspecific mouse IgG control antibody (BD Pharmingen, San Jose, Calif.). CXCL12 protein and IgG background staining was visualized using Alexa Fluor 594 conjugated goat anti-mouse antibody (Molecular Probes, Eugene, Oreg.). Nuclei were visualized with a DAPI counterstain."}, "Dnmt1": {"molecular_target": "T1, Dnmt1 (Homo sapiens, UniProt P26358)", "T1 construct": "endogenous in cells; host or cells: HCT116 (ATCC CCL-247)", "T1 sequence (P26358 whole entry)": "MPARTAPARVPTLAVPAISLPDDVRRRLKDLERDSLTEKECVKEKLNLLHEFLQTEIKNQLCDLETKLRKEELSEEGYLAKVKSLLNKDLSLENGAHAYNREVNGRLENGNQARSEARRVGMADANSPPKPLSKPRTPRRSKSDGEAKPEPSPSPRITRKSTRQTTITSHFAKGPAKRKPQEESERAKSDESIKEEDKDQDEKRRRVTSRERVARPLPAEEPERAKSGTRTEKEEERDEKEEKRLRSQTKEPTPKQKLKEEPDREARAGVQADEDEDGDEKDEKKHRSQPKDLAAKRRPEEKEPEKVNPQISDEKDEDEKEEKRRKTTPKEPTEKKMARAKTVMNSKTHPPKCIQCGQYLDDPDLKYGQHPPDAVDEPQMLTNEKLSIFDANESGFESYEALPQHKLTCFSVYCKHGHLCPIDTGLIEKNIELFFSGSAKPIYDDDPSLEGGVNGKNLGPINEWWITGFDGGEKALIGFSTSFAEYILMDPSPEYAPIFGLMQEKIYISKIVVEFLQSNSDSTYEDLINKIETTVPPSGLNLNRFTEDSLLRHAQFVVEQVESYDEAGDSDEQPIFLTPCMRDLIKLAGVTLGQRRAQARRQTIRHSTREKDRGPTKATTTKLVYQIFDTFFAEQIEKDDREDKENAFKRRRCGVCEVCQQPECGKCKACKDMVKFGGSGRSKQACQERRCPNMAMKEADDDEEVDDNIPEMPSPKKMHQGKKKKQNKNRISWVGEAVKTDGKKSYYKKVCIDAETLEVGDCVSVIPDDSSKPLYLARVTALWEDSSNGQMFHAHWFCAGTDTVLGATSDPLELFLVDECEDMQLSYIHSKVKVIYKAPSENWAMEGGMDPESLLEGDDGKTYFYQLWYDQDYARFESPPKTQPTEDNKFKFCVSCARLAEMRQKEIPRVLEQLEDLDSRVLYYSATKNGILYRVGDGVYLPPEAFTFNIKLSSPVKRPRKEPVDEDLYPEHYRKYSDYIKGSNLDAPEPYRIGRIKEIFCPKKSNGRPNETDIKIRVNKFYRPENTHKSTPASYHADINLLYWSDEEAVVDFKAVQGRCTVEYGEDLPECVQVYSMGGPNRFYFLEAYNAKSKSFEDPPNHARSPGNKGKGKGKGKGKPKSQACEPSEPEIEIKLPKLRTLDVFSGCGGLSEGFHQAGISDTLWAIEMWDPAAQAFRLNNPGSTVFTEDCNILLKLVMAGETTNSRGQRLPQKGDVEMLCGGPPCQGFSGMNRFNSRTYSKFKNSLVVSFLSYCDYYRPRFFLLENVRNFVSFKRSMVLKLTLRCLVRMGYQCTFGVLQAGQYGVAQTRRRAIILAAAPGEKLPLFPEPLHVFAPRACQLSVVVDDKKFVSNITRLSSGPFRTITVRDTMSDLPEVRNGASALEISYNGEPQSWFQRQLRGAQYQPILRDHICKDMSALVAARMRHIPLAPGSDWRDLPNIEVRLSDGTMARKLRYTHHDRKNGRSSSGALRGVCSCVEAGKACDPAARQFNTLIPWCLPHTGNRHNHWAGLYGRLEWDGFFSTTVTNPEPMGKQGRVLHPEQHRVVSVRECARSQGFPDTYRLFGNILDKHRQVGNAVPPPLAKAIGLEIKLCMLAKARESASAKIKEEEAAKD", "experiment": "Immunoblot of extractable Dnmt1 in 5-aza-treated HCT116 cells", "assay_type": "cell-based", "conditions": "increasing concentrations of 5-aza", "text": "(§1) Human colorectal carcinoma cell lines. HT29 (HTB-38), HCT116 (CCL-247), Caco2 (HTB-37), T84 (CCL-248) colonic carcinoma cells were purchased from the American Type Culture Collection (ATCC, Rockville, Md.) and maintained as previously described (Smith, J. M., et al. (2005) Am. J. Physiol Gastrointest. Liver Physiol 288, 316-26; Dwinell, M. B., et al. (2001) Gastroenterology 120, 49-59). Dnmt1, Dnmt3b or Dnmt1/Dnmt3b double knockout HCT116 cells were the kind gift of Dr. Bert Vogelstein (John Hopkins University School of Medicine) and were maintained similarly to wild-type HCT116 cells. In some experiments, carcinoma cells were treated with 5-aza (EMD Biosciences, La Jolla, Calif.) every 24 hr for the indicated number of days.\nImmunoblot analysis. For the detection of Dnmt1, Dnmt3b and actin, whole cell lysates were prepared as previously described (Smith, J. M., Johanesen, P. A., Wendt, M. K., Binion, D. G., and Dwinell, M. B. (2005). CXCL12 activation of CXCR4 regulates mucosal host defense through stimulation of epithelial cell migration and promotion of intestinal barrier integrity. Am. J. Physiol Gastrointest. Liver Physiol 288, 316-26), and 10 or 25 μg of protein size separated using reducing SDS-PAGE. Equal protein loading was confirmed by Coomassie blue staining. […]"}, "CXCL12 promoter": {"system": "CXCL12 promoter", "experiment": "Methylation-specific PCR of the CXCL12 promoter in 5-aza-treated cells", "assay_type": "cell-based, human", "experimental": "Methylation Specific PCR and Bisulphite Sequencing PCR. Genomic DNA from cell lines and colonic crypt preparations was isolated using the Genomic DNA wizard kit (Promega, Madison, Wis.) or TRIzol according to the manufacturer's instructions. […] DNA (2 μg) was denatured in 0.3M NaOH at 42° C. for 20 min in a 111 μl reaction volume. To this 1.2 ml of sodium bisulphite solution (4.5M NaHSO3, 0.02M hydroquinone, and pH 5.0) was added and incubated 16 hrs at 55° C. This reaction was desalted using DNA Purification Wizard (Promega) and the DNA was desulfonated in 0.3M NaOH at 37° C. for 20 min. The converted DNA was precipitated at −20° C., overnight in 75% ethanol containing 0.7M ammonium acetate and 0.05 mg/ml of glycogen, reconstituted in 50 μl of water, and 4.0 μl used in each 50 μl PCR reaction using 0.5 μM of specific MSP primers (Table S1)."}, "CXCL12 mRNA expression": {"system": "CXCL12 mRNA expression", "experiment": "RT-PCR analysis of CXCL12 and CXCR4 mRNA in 5-aza-treated colonic carcinoma cells", "assay_type": "cell-based, human", "conditions": "for CXCL12 mRNA expression: indicated concentrations for five days", "text": "as §1\nRT-PCR analysis. Total RNA was isolated from cultured cells and colonic crypt epithelium using TRIzol reagent (Invitrogen, Carlsbad, Calif.), DNase treated (Ambion, Austin, Tex.) and 2 μg of total RNA was converted to cDNA via reverse transcription using random priming in a 40 μl volume. CXCL12, CXCR4, and β-actin mRNA transcripts were amplified using previously described PCR primers and conditions (Heidemann, J., et al. (2004) Am. J. Physiol Gastrointest. Liver Physiol 286, G1059-G1068; Smith, J. M., et al. (2005) Am. J. Physiol Gastrointest. Liver Physiol 288, 316-26). Other PCR analyses were conducted using listed primer pairs and conditions (Table S1). […] in cDNA synthesis reactions as a negative control."}, "[2]": {"system": "CXCR4-expressing U937 monocytic cells", "experiment": "Leukocyte chemotaxis assay (Transwell, U937 monocytes over epithelial monolayers)", "assay_type": "cell-based, human", "description": "Leukocyte chemotaxis assay. HT29 or HCT116 cells were plated and grown to confluence in 24-well dishes. Cells were then serum starved for 2 days. Calcein-AM (Molecular Probes) loaded U937 monocytes (5×10^5) were plated to the upper well of a Transwell chemotaxis chamber (5 μm pore size, Corning Costar, Corning, N.Y.), with the serum-starved epithelial monolayers in the bottom chamber. U937-epithelial co-cultures were supplemented with the CXCR4 receptor antagonist AMD3100 (5 μg/ml) or remain untreated as a control. U937 cells were incubated without epithelial cells or, as a separate control, epithelial cells alone, were used to establish constitutive chemotaxis or auto-fluorescence respectively. U937 cells were incubated with epithelial cells for 3 hr and the number of migrated calcein-loaded monocytes in the bottom chamber quantified by fluorescence spectroscopy (Victor Wallac, Perkin Elmer)."}},
  "data": [
    {"compound": "Nc1ncn([C@H]2C[C@H](O)[C@@H](CO)O2)c(=O)n1", "note": "[5-aza, 5-aza-2′-deoxycytidine]", "values": [
      {"measurement": "CXCL12 protein expression by immunofluorescence", "setting": "[1]", "value": "detected"},
      {"measurement": "extractable levels of Dnmt1", "setting": "Dnmt1", "value": "ablated"},
      {"measurement": "methylation of the CXCL12 promoter", "setting": "CXCL12 promoter; HCT116 cells, 2.5 μM 5-aza, 3 days", "value": "inhibited"},
      {"measurement": "methylation of the CXCL12 promoter", "setting": "CXCL12 promoter; HT29 cells (data not shown)", "value": "inhibited"},
      {"measurement": "CXCL12 gene re-expression", "setting": "CXCL12 mRNA expression; Caco2 cells (data not shown)", "value": "similarly fostered gene re-expression"},
      {"measurement": "CXCL12 mRNA expression", "setting": "CXCL12 mRNA expression; HCT116 cells", "value": "dose-dependently restored"},
      {"measurement": "CXCR4 mRNA levels", "setting": "CXCL12 mRNA expression; HT29 and HCT116 cells with 5-aza treatment", "value": "remained unchanged"},
      {"measurement": "CXCL12 mRNA expression", "setting": "CXCL12 mRNA expression; HT29 cells", "value": "dose-dependently restored"},
      {"measurement": "time of maximal CXCL12 re-expression", "setting": "CXCL12 mRNA expression; HT29 or HCT116 cells, 2.5 μM 5-aza for 3-6 days", "value": 5, "unit": "days"},
      {"measurement": "CXCL12 gene re-expression", "setting": "CXCL12 mRNA expression; T84 cells (data not shown)", "value": "similarly fostered gene re-expression"}
    ]},
    {"compound": "c1cc(CN2CCCNCCNCCCNCC2)ccc1CN1CCCNCCNCCCNCC1", "note": "[AMD3100]", "values": [
      {"measurement": "chemotaxis of U937 cells toward CXCL12-expressing HT29 and HCT116 cells", "setting": "[2]; AMD3100 5 μg/ml, 3 hr", "value": "potently blocked migration"}
    ]},
    {"compound": "CXCL12: alpha type 7.8 kDa CXC chemokine, here secreted by stably transfected HT29 and HCT116 cells", "values": [
      {"measurement": "ability to stimulate chemotaxis of U937 cells", "setting": "[2]; CXCL12 secreted from HT29 and HCT116 stable transfectants", "value": "functional"}
    ]}
  ]
}
